Data as given in ChEMBL document CHEMBL1136363, “Rational approaches towards reversible inhibition of type B monoamine oxidase. Design and evaluation of a novel 5H-Indeno[1,2-c]pyridazin-5-one derivative” (Bioorg Med Chem Lett, 2003).

Target: T1, Amine oxidase [flavin-containing] A (Homo sapiens, UniProt P21397)
T1 sequence (P21397 whole entry): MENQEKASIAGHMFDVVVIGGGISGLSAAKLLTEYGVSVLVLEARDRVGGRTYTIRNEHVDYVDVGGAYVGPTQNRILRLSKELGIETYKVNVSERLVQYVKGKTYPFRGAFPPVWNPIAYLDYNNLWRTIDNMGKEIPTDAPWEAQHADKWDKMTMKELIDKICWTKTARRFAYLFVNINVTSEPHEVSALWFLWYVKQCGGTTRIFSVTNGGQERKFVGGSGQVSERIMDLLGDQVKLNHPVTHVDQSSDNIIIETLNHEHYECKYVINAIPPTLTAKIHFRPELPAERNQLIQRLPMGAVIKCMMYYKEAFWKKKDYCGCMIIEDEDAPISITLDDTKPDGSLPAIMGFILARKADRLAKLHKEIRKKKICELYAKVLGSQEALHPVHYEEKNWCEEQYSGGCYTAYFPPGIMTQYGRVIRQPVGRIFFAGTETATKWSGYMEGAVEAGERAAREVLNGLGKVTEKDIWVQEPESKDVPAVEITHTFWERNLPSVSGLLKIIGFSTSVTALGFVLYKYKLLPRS
Assay: Inhibitory concentration against Monoamine oxidase A in human placenta.

Ki: ~100 µM
SMILES: Cc1cc2c(nn1)-c1cc(OCCCC(F)(F)F)ccc1C2=O
